{"source": "patent US8138351B2", "about": "“Treatment of duchenne muscular dystrophy” (Summit Corporation PLC, priority 2007, dated 2012)", "tested_on": "Utrophin A promoter linked to a luciferase reporter gene (H2K/mdx/Utro A reporter cell line)", "experiment": "Luciferase reporter assay (murine H2K cells)", "assay_type": "cell-based, mouse", "conditions": "final concentration of 10 μM, 48 hrs", "protocol": "1. Luciferase Reporter Assay (Murine […] Cells) The cell line used for the screen is an immortalized mdx mouse H2K cell line that has been stably transfected with a plasmid containing ≈5 kb fragment of the Utrophin A promoter including the first untranslated exon linked to a luciferase reporter gene (see FIG. 1). Under conditions of low temperature and interferon containing media, the cells remain as myoblasts. These are plated into 96 well plates and cultured in the presence of compound for three days. The level of luciferase is then determined by cell lysis and reading of the light output from the expressed luciferase gene utilising a plate luminometer. The H2K/mdx/Utro A Reporter Cell Line Maintenance The H2K/mdx/Utro A reporter cell line was passaged twice a week until ≦30% confluent. The cells were grown at 33° C. in the presence of 10% CO2. To remove the myoblasts for platting, they were incubated with Trypsin/EDTA until the monolayer started to detach. […] Cells were then lysed in situ following the manufacture's protocols (Promega Steady-Glo Luciferase Assay System (E2520), then counted for 10 seconds using a plate luminometer (Victor1420). Biological activity was assessed using the luciferase reporter assay in murine H2K cells, and is classified as follows: […]"}
{"smiles": "CCS(=O)(=O)c1ccc2oc(-c3ccc4ccccc4c3)nc2c1", "note": "[5-(ethylsulfonyl)-2-(naphthalen-2-yl)benzo[d]oxazole]", "values": [{"measurement": "Biological activity, luciferase reporter assay, relative to control", "result": "+++ (Between 301% and 400% relative to control)"}]}
